What was measured:
Digitaria ciliaris = experiment: Test Example 5: herbicidal effect by foliage application, plastic box (symbol F); assay type: in vivo; conditions: 320 g/ha, 3 weeks after application
Procedure, shortened: (§1)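 Emulsion formulation, diluted with water to the intended rate, was applied uniformly to leaves by small sprayer. Recipients were 14-day greenhouse-grown seedlings (25° C. to 30° C.). Assessment followed at 3 weeks.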

Apera spica-venti = experiment: Test Example 5: herbicidal effect by foliage application, plastic box (symbol L); assay type: in vivo; conditions: 320 g/ha, 3 weeks after application
Procedure, shortened: as §1

[1] = system: Echinochloa crus-galli var. crus-galli; experiment: Test Example 3: herbicidal effect by foliage application, Wagner pot (symbol H); assay type: in vivo; conditions: application herbicide amount 320 g/ha
Procedure, shortened: (§2)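 Alluvial soil was flooded to a depth of 0.1–0.5 cm, seeded with the weeds and rice, and kept in a greenhouse at 25–30 °C. After 14 days of growth, the foliage received a small-sprayer application of emulsion diluted to the intended rate; injury was rated at 3 weeks.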

wheat = experiment: Test Example 5: effect on crop by foliage application, plastic box (symbol e); assay type: in vivo; conditions: 320 g/ha, 3 weeks after application
Procedure, shortened: (§3)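 Crop seed is sown alongside grass and broadleaf weed species in spots in sterilized diluvial soil, then covered to a depth of about 1.5 cm. Plants grow in a greenhouse kept at 25° C. to 30° C.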

soybean = experiment: Test Example 5: effect on crop by foliage application, plastic box (symbol d); assay type: in vivo; conditions: 320 g/ha, 3 weeks after application
Procedure, shortened: as §3

[2] = system: Echinochloa crus-galli var. crus-galli; experiment: Test Example 5: herbicidal effect by foliage application, plastic box (symbol H); assay type: in vivo; conditions: 320 g/ha, 3 weeks after application
Procedure, shortened: as §1

Leptochloa chinensis = experiment: Test Example 3: herbicidal effect by foliage application, Wagner pot (symbol D); assay type: in vivo; conditions: application herbicide amount 320 g/ha
Procedure, shortened: as §2

rice plant = experiment: Test Example 5: effect on crop by foliage application, plastic box (symbol b); assay type: in vivo; conditions: 320 g/ha, 3 weeks after application
Procedure, shortened: as §3

corn = experiment: Test Example 5: effect on crop by foliage application, plastic box (symbol c); assay type: in vivo; conditions: 320 g/ha, 3 weeks after application
Procedure, shortened: as §3

Setaria viridis = experiment: Test Example 5: herbicidal effect by foliage application, plastic box (symbol G); assay type: in vivo; conditions: 320 g/ha, 3 weeks after application
Procedure, shortened: as §1

Cyperus difformis = experiment: Test Example 3: herbicidal effect by foliage application, Wagner pot (symbol E); assay type: in vivo; conditions: application herbicide amount 320 g/ha
Procedure, shortened: as §2

[3] = system: directly sowed rice plant; experiment: Test Example 3: effect on crop by foliage application, Wagner pot (symbol b); assay type: in vivo; conditions: application herbicide amount 320 g/ha
Procedure, shortened: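 Steps: fill a 1/10000-are Wagner pot with alluvial soil; add water and mix to submerge at 0.1–0.5 cm depth; sow rice plus Echinochloa crus-galli var. crus-galli, Leptochloa chinensis and Cyperus difformis; grow in a 25–30 °C greenhouse.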

Galium spurium = experiment: Test Example 5: herbicidal effect by foliage application, plastic box (symbol Q); assay type: in vivo; conditions: 320 g/ha, 3 weeks after application
Procedure, shortened: as §1

Abutilon theophrasti = experiment: Test Example 5: herbicidal effect by foliage application, plastic box (symbol M); assay type: in vivo; conditions: 320 g/ha, 3 weeks after application
Procedure, shortened: as §1

rapeseed = experiment: Test Example 5: effect on crop by foliage application, plastic box (symbol g); assay type: in vivo; conditions: 320 g/ha, 3 weeks after application
Procedure, shortened: as §3

Avena fatua = experiment: Test Example 5: herbicidal effect by foliage application, plastic box (symbol I); assay type: in vivo; conditions: 320 g/ha, 3 weeks after application
Procedure, shortened: as §1

Alopecurus myosuroides = experiment: Test Example 5: herbicidal effect by foliage application, plastic box (symbol J); assay type: in vivo; conditions: 320 g/ha, 3 weeks after application
Procedure, shortened: as §1

beet = experiment: Test Example 5: effect on crop by foliage application, plastic box (symbol f); assay type: in vivo; conditions: 320 g/ha, 3 weeks after application
Procedure, shortened: as §3

Lolium multiflorum Lam. = experiment: Test Example 5: herbicidal effect by foliage application, plastic box (symbol K); assay type: in vivo; conditions: 320 g/ha, 3 weeks after application
Procedure, shortened: as §1

Amaranthus retroflexus = experiment: Test Example 5: herbicidal effect by foliage application, plastic box (symbol N); assay type: in vivo; conditions: 320 g/ha, 3 weeks after application
Procedure, shortened: as §1

Stellaria media = experiment: Test Example 5: herbicidal effect by foliage application, plastic box (symbol P); assay type: in vivo; conditions: 320 g/ha, 3 weeks after application
Procedure, shortened: as §1

Chenopodium album = experiment: Test Example 5: herbicidal effect by foliage application, plastic box (symbol O); assay type: in vivo; conditions: 320 g/ha, 3 weeks after application
Procedure, shortened: as §1

Veronica persica = experiment: Test Example 5: herbicidal effect by foliage application, plastic box (symbol R); assay type: in vivo; conditions: 320 g/ha, 3 weeks after application
Procedure, shortened: as §1

melting point: 181 to 184 °C
Structure (SMILES): CON=C(C)CC1CC(O)=C(c2c(C)cc(C#N)cc2C)C1=O (stereo not drawn) [6-027]
F: Digitaria ciliaris, herbicidal effect grade (Digitaria ciliaris): 3 (Herbicidal ratio of 40% or higher and lower than 70%)
L: Apera spica-venti, herbicidal effect grade (Apera spica-venti): 0 (Herbicidal ratio of 5% or lower (almost no effect))
herbicidal effect on H (Echinochloa crus-galli var. crus-galli), grade 0-5 [1]: 2 (Herbicidal ratio of 20% or higher and lower than 40%)
e: wheat, effect on crop grade (wheat): 0 (Herbicidal ratio of 5% or lower (almost no effect))
d: soybean, effect on crop grade (soybean): 0 (Herbicidal ratio of 5% or lower (almost no effect))
H: Echinochloa crus-galli var. crus-galli, herbicidal effect grade [2]: 4 (Herbicidal ratio of 70% or higher and lower than 90%)
herbicidal effect on D (Leptochloa chinensis), grade 0-5 (Leptochloa chinensis): 3 (Herbicidal ratio of 40% or higher and lower than 70%)
b: directly sowed rice plant, effect on crop grade (rice plant): 1 (Herbicidal ratio of 5% or higher and lower than 20%)
c: corn, effect on crop grade (corn): 1 (Herbicidal ratio of 5% or higher and lower than 20%)
G: Setaria viridis, herbicidal effect grade (Setaria viridis): 4 (Herbicidal ratio of 70% or higher and lower than 90%)
herbicidal effect on E, grade 0-5 (Cyperus difformis): 0 (Herbicidal ratio of 5% or lower (almost no effect))
effect on crop b (directly sowed rice plant), grade 0-5 [3]: 0 (Herbicidal ratio of 5% or lower (almost no effect))
Q: Galium spurium, herbicidal effect grade (Galium spurium): 0 (Herbicidal ratio of 5% or lower (almost no effect))
M: Abutilon theophrasti, herbicidal effect grade (Abutilon theophrasti): 0 (Herbicidal ratio of 5% or lower (almost no effect))
g: rapeseed, effect on crop grade (rapeseed): 0 (Herbicidal ratio of 5% or lower (almost no effect))
I: Avena fatua, herbicidal effect grade (Avena fatua): 1 (Herbicidal ratio of 5% or higher and lower than 20%)
J: Alopecurus myosuroides, herbicidal effect grade (Alopecurus myosuroides): 0 (Herbicidal ratio of 5% or lower (almost no effect))
f: beet, effect on crop grade (beet): 0 (Herbicidal ratio of 5% or lower (almost no effect))
K: Lolium multiflorum Lam., herbicidal effect grade (Lolium multiflorum Lam.): 0 (Herbicidal ratio of 5% or lower (almost no effect))
N: Amaranthus retroflexus, herbicidal effect grade (Amaranthus retroflexus): 0 (Herbicidal ratio of 5% or lower (almost no effect))
P: Stellaria media, herbicidal effect grade (Stellaria media): 0 (Herbicidal ratio of 5% or lower (almost no effect))
O: Chenopodium album, herbicidal effect grade (Chenopodium album): 0 (Herbicidal ratio of 5% or lower (almost no effect))
R: Veronica persica, herbicidal effect grade (Veronica persica): 0 (Herbicidal ratio of 5% or lower (almost no effect))

Reference: patent publication US11000033B2, “Ketone or oxime compound, and herbicide” (NISSAN CHEMICAL CORPORATION, priority 2014, dated 2021)
